Columns and labels:
3′UTR of CDK4 = assay: Luciferase Reporter Assay, CDK4 3'UTR; format: cell-based, human; conditions: BE(2)-C cells, 25 nM mimic, 72 h
Excerpt: Luciferase Reporter Assay. The segments of the wildtype 3′ UTRs for CDK4 and STAT3 containing the predicted target sites of miR-506-3p and miR-124-3p were cloned from human genomic DNA. Mutant constructs were generated with the seed target site (GUGCCUU (SEQ ID NO:4)) replaced by CACGGUU (SEQ ID NO:5). The 3′ UTRs were cloned downstream of the firefly luciferase coding sequences into the pmirGLO dual-luciferase reporter (Promega), a vector containing both firefly and Renilla luciferase cDNAs under the control of separate promoter/terminator systems. The firefly luciferase was used as the primary reporter for miRNA regulation of the 3′ UTR. The Renilla luciferase is an internal control for normalization. BE(2)-C cells were co-transfected with luciferase reporters (0.8 ng/μl) and miRNA mimics or control oligonucleotide (oligo) (25 nM). Luciferase activities were measured after 72 h using the Dual-Glo Luciferase Assay System (Promega). Firefly luciferase activity was normalized to Renilla luciferase activity to evaluate the effect of the miRNAs.

CDK4 = assay: Western blot of endogenous CDK4 protein; format: cell-based; conditions: miRNA overexpression, 4 days
Excerpt: (§1) FIG. 7A-7F. Validation of CDK4 and STAT3 as direct targets that mediate the differentiation-inducing function of miR-506-3p and miR-124-3p. (A) The predicted interactions between miR-506-3p/miR-124-3p and the target sites in the 3′UTR of STAT3 and CDK4 rnRNAs. The seed sequences are underlined. (SEQ ID NOS: 1, 2, 18, 19, 20, 21) (B-C) Validation of the target sites of miR-506-3p and miR-124-3p in the 3′UTRs of (B) CDK4 and (C) STAT3 by luciferase reporter assay. BE(2)-C cells were co-transfected with the indicated vectors and miRNA mimics or control oligo. After 72 h of transfection, cells were lysed and luciferase activity was measured. […] Cells were transfected as above for 4 days, and protein levels were measured by Western blots. […] Cells were transfected with the indicated oligos, and neurite lengths were measured as above after 4 days transfection. Shown are representative cell images analyzed to define neurites and cell body areas (G) and quantification of neurite length under the indicated treatment conditions (H). **, p<0.01; *** , p<0.001; ****, p<0.0001.
(§2) Western Blots. […] Protein concentration was determined using the Pierce BCA assay (Thermo Fisher Scientific). […] Bound antibodies were detected with secondary antibodies conjugated with horseradish peroxidase (HRP) visualized by enhanced chemiluminescent (ECL) substrate (Pierce).

[1] = tested on: additional neuroblastoma cell lines with different genetic backgrounds; assay: Neurite outgrowth in multiple neuroblastoma cell lines; format: cell-based; conditions: 25 nM miRNA mimic, 5 days, among the top 5 miRNAs
Experimental: (§3) FIG. 3A-3G. Characterization of the effect of the top 5 neurite-inducing miRNA mimics on cell differentiation and growth in multiple neuroblastoma cell lines. (A-B) Effects of the identified top 5 miRNA mimics on neurite outgrowth. BE(2)-C cells were transfected with 25 nM miRNA mimics or control for 4 days, and relative neurite lengths were quantified as above. Shown are representative cell images analyzed to define neurite and cell body areas (A) and neurite length quantifications (B). (C) Effects of the 5 miRNA mimics on expression of differentiation markers. BE(2)-C cells were transfected with 25 nM of the indicated miRNA mimics or control, and proteins levels were examined after 4 days. (D) Effects of the 5 miRNA mimics on cell proliferation rate. (E) Effect of the 5 miRNAs on neurite outgrowth in multiple cell lines. Cells were transfected with 25 nM miRNA mimics or control, and neurite lengths were quantified as above after 5 days. (F-G) Effects of miR-506-3p (F) and miR-124-3p (G) mimics on expression of differentiation markers in multiple cell lines. *, p<0.05; **, p<0.01; ***, p<0.001; **** , p<0.0001.
Detection and Quantification of Neurite Outgrowth. Cells were plated and treated in 96-well plates. […] The neurite lengths associated with each treatment were calculated using the neurite definition defined for each specific cell line using the NeuroTrack system (Essen BioScience).

STAT3 = assay: Western blot of endogenous STAT3 protein; format: cell-based; conditions: miRNA overexpression, 4 days
Excerpt: as §1, §2

BE(2)-C cells [2] = assay: Endogenous miRNA expression by qRT-PCR in differentiated cells; format: cell-based; conditions: differentiated BE(2)-C cells
Experimental: Mrna And Mirna Expression. Total RNA was isolated as previously described (Du et al., Mol Cancer Res, 2009, 7(8):1234-43). mRNA expression profiling was done using the Illumina mRNA WG-6 v3 microarray platform. miRNA expression was measured by qRT-PCR using TaqMan microRNA Assays (Life Technologies) with average expression of RNU44 RNA, RNU19 RNA, GAPDH mRNA and 18s rRNA used as controls for normalizing RNA loading.

BE(2)-C cells [3] = assay: Colony Formation Assay; format: cell-based; conditions: 25 nM mimic, 14 days
Experimental: Colony Formation Assay. Cells were transfected as specified and cultured overnight. 500 cells were re-plated in 10 cm dishes. After 14 days, colonies were visualized by staining with 1% crystal violet. Colony numbers and sizes were analyzed using Image J (NIH, Bethesda, Md.).

differentiation markers = assay: Western blots of differentiation markers in multiple neuroblastoma cell lines; format: cell-based; conditions: miRNA mimic
Experimental: as §3, §2

## hsa-miR-506-3p: miRNA mimic (Dharmacon), mature sequence UAAGGCACCCUUCUGAGUAGA (SEQ ID NO: 1) (UAAGGCACCCUUCUGAGUAGA(1); as printed in the source, key not given here)
3′UTR of CDK4
  Target site in the 3′UTR of CDK4 by luciferase reporter: validated
CDK4
  Endogenous CDK4 protein expression level: down-regulate
[1]
  Effect on neurite growth in multiple cell lines: most potent effect on neurite growth
STAT3
  Endogenous STAT3 protein expression level: down-regulate
BE(2)-C cells [2]
  Overexpression of the endogenous miRNA in differentiated cells: 380.1±48.4 fold
BE(2)-C cells [3]
  Colony formation: significantly reduce the ability of BE(2)-C to form colonies
Differentiation markers
  Expression of differentiation markers in all the tested cell lines: dramatically induce expression of differentiation markers

Source: patent US10767179B2, “MicroRNA composition for the treatment of neuroblastoma” (THE BOARD OF REGENTS OF THE UNIVERSITY OF TEXAS SYSTEM, priority 2014, dated 2020)
